Data on 1 molecule can be found in PMC8249783, “A novel multikinase inhibitor SKLB‐YTH‐60 ameliorates inflammation and fibrosis in bleomycin‐induced lung fibrosis mouse models” (Cell Proliferation, 2021).

In brackets after ≈: the same amount, converted by molar mass. Like-named read-outs stand apart in the source and are kept apart here.

Data set [1] in a line: Determination of thermodynamic solubility. It counts as physicochemical. The settings on record: thermodynamic from solid, double testing. As for the experimental part: Weigh about 1 mg of the test compound into 1.5 mL centrifuge tube and add 0.5 mL various solvents, sonicating for 5 minutes (if the compound is completely dissolved, then added again test compound until a little solid remains). Take the supernatant after centrifugation, diluting to a suitable concentration using and measuring absorbance values by UV spectrophotometer. Weigh 10 mg compound accurately of the test compound into 1.5 mL centrifuge tube and add 1.2 mL methanol solution to prepare 8.3 mg·mL^−1 mother solution. Take the above described mother liquor to prepare the solution in concentrations of 8.3, 4.2, 2.1, 1.0, 0.52, 0.26 mg·mL^−1 then measure absorbance value. With concentration c (mg·mL^−1) as the abscissa, absorbance A as the ordinate, mapping and fitting line to get the standard curve (The correlation coefficient should be greater than 0.998). Calculate solubility according to the standard curve of the linear equation.

For data set [2], the system named is lung MDSCs and macrophages. The data set is described as follows: Flow cytometry of MDSCs and macrophages in lung tissue of BLM mice. It counts as in vivo, C57BL/6 mice. Conditions: 30 mg·kg^−1 i.p. The method, then:
Male C57BL/6 mice (8‐10 weeks old) were purchased from HFK Bioscience Co. Ltd. All animal experiments were permitted by the Institutional Animal Care and Treatment Committee of Sichuan University in China (New Permit Number: 20190524003). Lung fibrosis was induced using BLM treatment (2 mg·kg^−1). All C57BL/6 mice were divided into five groups (n = 10): a BLM + Nintedanib group (Nintedanib, 30 mg·kg^−1), a BLM + YTH‐60 group (YTH‐60, 15 mg·kg^−1 and 30 mg·kg^−1), a control group (Sham), and a bleomycin group (Vehicle). At the beginning, the mice were anaesthetized using 10% chloral hydrate, dissolved BLM with saline and administered intratracheally. To evaluate the preventive effect, the next day after BLM challenge, YTH‐60 and Nintedanib were administered intraperitoneally daily for 13 days (fibroproliferation) to the mice. All mice were sacrificed 24 hours after the last drug injection, the lungs and other organs were taken for the subsequent analysis. To test the therapeutic effect, after the 7th day of BLM treatment, mice were injected intraperitoneally with YTH‐60, Nintedanib and vehicle daily for 7 consecutive days (fibroproliferation).
We analysed the percentage of MDSCs and macrophages by Flow cytometry (FCM). ^22 Use scissors to cut approximately 30 mg of mouse lung tissues into small pieces and use 5 mL of collagenase‐IV with a concentration of 1 mg·mL^−1, digested at 37°C for at least 1 hour. Centrifuge at 400 g for 5 minutes and discard the supernatant. Then, add another 5 mL PBS to resuspend, after precipitation, taken the supernatant and mixed with the corresponding fluorochromium binding antibody, incubate for 30 minutes in the dark at 4°C (MDSCs with PE^−CD11b^−, FITC^−Gr1^− conjugated dual labelling and macrophages with PE^−F4/80^−, FITC^−CD11b^− conjugated dual labelling). The data were acquired with a FACS Canton II NovoCyte (ACEA).
In general terms: A flow cytometer gives signals particle by particle.

On the set-up of data set [3]: method as in PMID 25474320. Conditions: 50 mg·kg^−1 oral administration; cited from earlier work.

The solubility is the concentration that dissolves in the medium under given conditions.

Take `COC(=O)c1ccc2c(c1)NC(=O)/C2=C(\Nc1ccc(N(C)C(=O)CN2CCN(C)CC2)cc1)c1ccccc1` [Nintedanib, reference compound]: the solubility at 5 min is 9830 ± 420 µg/mL (≈ 18.2 mM) in data set [1] (organic solvent or mixture, Acetone, read-out: Solubility, Acetone); 3520 ± 64 µg/mL (≈ 6.53 mM) in data set [1] (organic solvent or mixture, Acetonitrile, read-out: Solubility, Acetonitrile); 9750 ± 350 µg/mL (≈ 18.1 mM) in data set [1] (organic solvent or mixture, Ethyl acetate, read-out: Solubility, Ethyl acetate); 12500 ± 2200 µg/mL (≈ 23.1 mM) in data set [1] (organic solvent or mixture, Ethyl alcohol, read-out: Solubility, Ethyl alcohol); 1930 ± 180 µg/mL (≈ 3.58 mM) in data set [1] (saline or isotonic, Normal saline, read-out: Solubility, Normal saline); 280 ± 15 µg/mL (≈ 0.519 mM) in data set [1] (Water, read-out: Solubility, Water). Besides, in data set [2] (day 14, BLM group 19.9%, sham 9.9%), the “percentage of CD11b^+F4/80^+ cells (macrophages) in lung” value is 13.89%. Further, the “percentage of CD11b^+Gr1^+ cells (MDSCs) in lung” value in data set [2] (day 14, BLM group 20.5%, sham 5.14%) is given as 10.46%. The mean bioavailability in data set [3] is 11.9%.
